From ChEMBL document CHEMBL3046905, “Synthesis, biological evaluation and molecular docking studies of 1,3-benzoxazine derivatives as potential anticancer agents” (Med Chem Res, 2013)
Active and inactive are the calls of the source. The calls are words filed in the database; no cut-off is given here.

Legend:
MCF7 [1] = assay: Growth inhibition of Homo sapiens (human) MCF7 cells at 15 ug/ml after 48 hr by MTT assay relative to control; assay type: functional; settings: for inhibition of growth at 15 µg/mL: MCF7, 48 h, read-out: GI
MCF7 [2] = assay: Growth inhibition of Homo sapiens (human) MCF7 cells at 30 ug/ml after 48 hr by MTT assay relative to control; assay type: functional; settings: MCF7, 48 h, read-out: GI
MCF7 [3] = assay: Growth inhibition of Homo sapiens (human) MCF7 cells at 60 ug/ml after 48 hr by MTT assay relative to control; assay type: functional; settings: MCF7, 48 h, read-out: GI
MCF7 [4] = assay: Growth inhibition of Homo sapiens (human) MCF7 cells after 48 hr by MTT assay; assay type: functional, cell-based
MCF7 [5] = assay: Growth inhibition of Homo sapiens (human) MCF7 cells at 7.5 ug/ml after 48 hr by MTT assay relative to control; assay type: functional; settings: for inhibition of growth at 7.5 µg/mL: MCF7, 48 h, read-out: GI
[6] = Homo sapiens, MCF7, 48 h, read-out: IC50

| IC50 (MCF7 [4]; [6]) | IC50 (MCF7 [4]; mcf7) | Structure (SMILES) | inhibition of growth at 15 µg/mL (MCF7 [1]) | inhibition of growth at 30 µg/mL (MCF7 [2]) | inhibition of growth at 60 µg/mL (MCF7 [3]) | inhibition of growth at 7.5 µg/mL (MCF7 [5]) | growth inhibition (GI) (MCF7 [1]) | growth inhibition (GI) (MCF7 [5]) |
| --- | --- | --- | --- | --- | --- | --- | --- | --- |
| 14.9 µM | – | Cc1cccc2c1OCN(c1ccc3c(=O)cc(-c4ccccc4)oc3c1)C2 | 54.9% | 57.8% | 66.6% | 43.9% | – | – |
| 12.1 µM | – | COc1cc2c(c(OC)c1)OCN(c1ccc3c(=O)cc(-c4ccccc4)oc3c1)C2 | 62.9% | 75.9% | 88.9% | 45.8% | – | – |
| 7.2 µM | – | COc1cccc2c1C(=O)c1c(O)c3c(c(O)c1C2=O)C[C@@](O)(C(=O)CO)C[C@@H]3O[C@H]1C[C@H](N)[C@H](O)[C@H](C)O1 [DOXORUBICIN] | 70.3% | 88.9% | 99.5% | 50.8% | – | – |
| 61.9 µM | – | Cc1cc(C)c2c(c1)CN(c1ccc3c(=O)cc(-c4ccccc4)oc3c1)CO2 | – | 26.8% | 48.4% | 11.2% | inactive | – |
| – | Not Active | O=c1cc(-c2ccccc2)oc2cc(N3COc4ccccc4C3)ccc12 | 3.89% | 12.7% | 19.3% | 2.65% | – | – |
| – | Not Active | O=c1cc(-c2ccccc2)oc2cc(N3COc4c(Br)cccc4C3)ccc12 | 5.64% | 7.89% | 19.5% | 2.21% | – | – |
| 27.5 µM | – | O=c1cc(-c2ccccc2)oc2ccc(N3COc4ccccc4C3)cc12 | 34% | 68.5% | 92.7% | 8.7% | – | – |
| 19.6 µM | – | O=c1cc(-c2ccccc2)oc2ccc(N3COc4c(Br)cccc4C3)cc12 | 37.8% | 71.6% | 81.8% | – | – | inactive |
| 29.8 µM | – | Cc1ccc2c(c1)CN(c1ccc3oc(-c4ccccc4)cc(=O)c3c1)CO2 | 31% | 56.9% | 79.5% | 16.5% | – | – |
| 12 µM | – | O=c1cc(-c2ccccc2)oc2ccc(N3COc4c(Cl)cc(Cl)cc4C3)cc12 | 61.3% | 74% | 80.3% | 32.8% | – | – |
| 14.3 µM | – | Cc1cccc2c1OCN(c1ccc3oc(-c4ccccc4)cc(=O)c3c1)C2 | 60.9% | 72.4% | 85.1% | 30.4% | – | – |
| – | Not Active | O=c1cc(-c2ccccc2)oc2ccc(N3COc4c(Br)cc(Br)cc4C3)cc12 | 13.6% | 16.1% | 34.5% | 6.54% | – | – |
| 44.5 µM | – | O=c1cc(-c2ccccc2)oc2cc(N3COc4c(Cl)cc(Cl)cc4C3)ccc12 | 11.8% | 34.6% | 68.8% | – | – | inactive |
| – | Not Active | O=c1cc(-c2ccccc2)oc2cc(N3COc4c(cccc4[N+](=O)[O-])C3)ccc12 | 1.96% | 5.65% | 15.7% | – | – | inactive |
| 8.01 µM | – | COc1cc2c(c(OC)c1)OCN(c1ccc3oc(-c4ccccc4)cc(=O)c3c1)C2 | 60% | 79% | 99.1% | 48.9% | – | – |
| – | Not Active | O=c1cc(-c2ccccc2)oc2cc(N3COc4c(Br)cc(Br)cc4C3)ccc12 | 1.64% | 11.1% | 26.5% | 1.48% | – | – |
| 17 µM | – | COc1cccc2c1OCN(c1ccc3oc(-c4ccccc4)cc(=O)c3c1)C2 | 54% | 67.8% | 91.9% | 32.5% | – | – |
| 28.4 µM | – | O=c1cc(-c2ccccc2)oc2ccc(N3COc4c(cccc4[N+](=O)[O-])C3)cc12 | 55.9% | 61.9% | 72.9% | 8.2% | – | – |
